The first test deals with HSP-90 (heat shock protein 90). The test is described as follows: Determination of affinity for HSP-90 (elution from purine affinity column). In kind it is binding. Further details: key: A stands for very high; B for high; C for moderate. To be noted: purine affinity column loaded with organ tissue proteins; eluted with 20μM, 100 μM, and 500 μM of test compound; densitometry. On the procedure:
Affinity of test compounds for HSP-90 was determined as follows: Protein mixtures obtained from a variety of organ tissues (for example: spleen, liver and lung) were reversibly bound to a purine affinity column to capture purine-binding proteins, especially HSP-90. The purine affinity column was washed several times, and then eluted with 20μM, 100 μM, and 500 μM of test compound. Compounds of Formula I elute HP-90 in a dose-dependent manner vs. a control elution using dimethylsulfoxide. The elution profile of Formula I compounds was determined by 1-dimensional SDS polyacrylamide gel electrophoresis. Gels were stained with a fluorescent stain such as sypro ruby (a highly sensitive fluorescent protein stain that can readily detect less than 1 fmol of total protein, i.e., less than 0.04 ng for a 40 kDa protein) or silver nitrate. The gels were imaged using a standard flat bed gel imager and the amount of protein estimated by densitometry. The percent of HSP-90 protein eluted from the column at each concentration was determined and IC50 values were calculated from these estimates. The identity of a band containing HSP-90 was determined by protein sequencing using mass spectroscopy.
Compounds of the invention are inhibitors of HSP-90 (heat shock protein 90). Several exemplary compounds useful in the methods of the invention are listed below.
In the case of `CC1(C)CC(=O)c2c(C(F)(F)F)nn(-c3ccc(C(N)=O)c(NC4CCC(OC(=O)CCNC(=O)[C@@H](N)CCCN)CC4)c3)c2C1.CS(=O)(=O)O.CS(=O)(=O)O` (stereo partly drawn), the “relative binding affinity to HSP-90” value is on record as “A”.

For `Cc1nn(-c2ccc(C(N)=O)c(NC3CCC(OC(=O)CCNC(=O)OC(C)(C)C)CC3)c2)c2c1C(=O)CC(C)(C)C2` (stereo not drawn) [drawing 94], the “relative binding affinity to HSP-90” value is “A”.

Turning to `CS(=O)(=O)O.Cc1nn(-c2ccc(C(N)=O)c(NC3CCC(OC(=O)CCN)CC3)c2)c2c1C(=O)CC(C)(C)C2` (stereo not drawn), the “relative binding affinity to HSP-90” value is on record as “A”.

Take `Cc1nn(-c2ccc(C#N)c(Br)c2)c2c1C(=O)CC(C)(C)C2` [drawing 95]: the “relative binding affinity to HSP-90” value is listed as “C”.

Regarding `CC1(C)CC(=O)c2c(C(F)(F)F)nn(-c3ccc(C(N)=O)c(NC4CCC(OC(=O)[C@@H](N)CCCCN)CC4)c3)c2C1.CS(=O)(=O)O.CS(=O)(=O)O` (stereo partly drawn), the “relative binding affinity to HSP-90” value is “A”.

As to `CC1(C)CC(=O)c2c(C(F)F)nn(-c3ccc(C(N)=O)c(N[C@H]4CC[C@H](O)CC4)c3)c2C1` [drawing 91], the “relative binding affinity to HSP-90” value was “A”.

For a further test, the system named is PC-3 cell proliferation. The test is described as follows: Cell proliferation assay (WST-1), PC-3 cells. The settings on record: Homo sapiens, WST-1 optical density at 450 nm, growth vs DMSO (100%) and 10 μM Actinomycin D (0%), read-out: inhibitory activity against PC-3 cell proliferation (IC50 range). Type of test: cell-based. On the procedure:
A panel of cancer cell lines was obtained from the DCTP Tumor Repository, National Cancer Institute (Frederick, Md.) or ATCC (Rockville, Md.). Cell cultures were maintained in Hyclone RPMI 1640 medium (Logan, Utah) supplemented with 10% fetal bovine serum and 20 mM HEPES buffer, final pH 7.2, at 37° C. with a 5% CO2 atmosphere. Cultures were maintained at sub-confluent densities. Human umbilical vein endothelial cells (HUVEC) were purchased from Clonetics, a division of Cambrex (Walkersville, Md.). Cultures were established from cryopreserved stocks using Clonetics EGM-2 medium supplemented with 20 mM HEPES, final pH 7.2, at 37° C. with a 5% CO2 atmosphere.
For proliferation assays, cells were seeded with the appropriate medium into 96 well plates at 1,000-2,500 cells per well, depending on the cell line, and were incubated overnight. The following day, test compound, DMSO solution (negative control), or Actinomycin D (positive control) was added to the appropriate wells as 10× concentrated stocks prepared in phosphate buffered saline. The cell plates were then incubated for an additional 2-5 days, depending on the cell line, to allow proliferation to occur. To measure cell density, 50 μL of WST-1 solution (Roche Applied Science, IN) diluted 1:5 in phosphate buffered saline was added to each well, and the cells incubated for an additional 1-5 hrs., again depending on the cell line. Optical density was determined for each well at […] using a Tecan GeniosPro plate reader (RTP, NC). The percentage of cell growth was determined by comparing the cell growth in the presence of test compounds to the cells treated with DMSO vehicle (control, 100% growth) and cells treated with Actinomycin D (10 μM, 0% growth).
Immediately after the WST-1 determination, the medium was removed from the PC-3, NCI-H460 and HUVEC cell lines, and the plates stored at −80° C. Using these assay plates, relative amounts of DNA in each well were determined using the Cyquant DNA assay kit from […] (Eugene, Oreg.) following the manufacturer's directions. Results for each compound treatment were compared to DMSO vehicle control (100%) and 10 μM Actinomycin D treated cells (0%).
Several exemplary compounds useful in the methods of the invention are listed below.
`Cc1nn(-c2ccc(C(N)=O)c(NC3CCC(OC(=O)CCN)CC3)c2)c2c1C(=O)CC(C)(C)C2` (stereo not drawn): the IC50 lay within 0.5 to 5 µM.

Take `CC1(C)CC(=O)c2c(C(F)F)nn(-c3ccc(C(N)=O)c(N[C@H]4CC[C@H](O)CC4)c3)c2C1` [drawing 85]: the IC50 is less than 0.5 µM.

For `Cc1nn(-c2ccc(C(N)=O)c(NC3CCC(OC(=O)CCNC(=O)OC(C)(C)C)CC3)c2)c2c1C(=O)CC(C)(C)C2` (stereo not drawn) [drawing 88], the IC50 was less than 0.5 µM.

As for `Cc1nn(-c2ccc(C#N)c(Br)c2)c2c1C(=O)CC(C)(C)C2` [drawing 89], the IC50 was in the range of 5 to 50 µM.

On to `CC1(C)CC(=O)c2c(C(F)(F)F)nn(-c3ccc(C(N)=O)c(NC4CCC(OC(=O)CCNC(=O)[C@@H](N)CCCN)CC4)c3)c2C1` (stereo partly drawn), for which the IC50 is less than 0.5 µM.

For `CC1(C)CC(=O)c2c(C(F)(F)F)nn(-c3ccc(C(N)=O)c(NC4CCC(OC(=O)[C@@H](N)CCCCN)CC4)c3)c2C1` (stereo partly drawn), the IC50 is less than 0.5 µM.

The values above are taken from patent US20070207984A1, “Cyclohexylamino Benzene, Pyridine, and Pyridazine Derivatives” (priority 2006, published 2007).
